The values below come from ChEMBL document CHEMBL1154364, “2-Benzimidazolyl-9-(chroman-4-yl)-purinone derivatives as JAK3 inhibitors” (Bioorg Med Chem Lett, 2009).

This assay addresses Tyrosine-protein kinase JAK2 (Homo sapiens, UniProt O60674).

Chain of Tyrosine-protein kinase JAK2 (O60674 whole entry): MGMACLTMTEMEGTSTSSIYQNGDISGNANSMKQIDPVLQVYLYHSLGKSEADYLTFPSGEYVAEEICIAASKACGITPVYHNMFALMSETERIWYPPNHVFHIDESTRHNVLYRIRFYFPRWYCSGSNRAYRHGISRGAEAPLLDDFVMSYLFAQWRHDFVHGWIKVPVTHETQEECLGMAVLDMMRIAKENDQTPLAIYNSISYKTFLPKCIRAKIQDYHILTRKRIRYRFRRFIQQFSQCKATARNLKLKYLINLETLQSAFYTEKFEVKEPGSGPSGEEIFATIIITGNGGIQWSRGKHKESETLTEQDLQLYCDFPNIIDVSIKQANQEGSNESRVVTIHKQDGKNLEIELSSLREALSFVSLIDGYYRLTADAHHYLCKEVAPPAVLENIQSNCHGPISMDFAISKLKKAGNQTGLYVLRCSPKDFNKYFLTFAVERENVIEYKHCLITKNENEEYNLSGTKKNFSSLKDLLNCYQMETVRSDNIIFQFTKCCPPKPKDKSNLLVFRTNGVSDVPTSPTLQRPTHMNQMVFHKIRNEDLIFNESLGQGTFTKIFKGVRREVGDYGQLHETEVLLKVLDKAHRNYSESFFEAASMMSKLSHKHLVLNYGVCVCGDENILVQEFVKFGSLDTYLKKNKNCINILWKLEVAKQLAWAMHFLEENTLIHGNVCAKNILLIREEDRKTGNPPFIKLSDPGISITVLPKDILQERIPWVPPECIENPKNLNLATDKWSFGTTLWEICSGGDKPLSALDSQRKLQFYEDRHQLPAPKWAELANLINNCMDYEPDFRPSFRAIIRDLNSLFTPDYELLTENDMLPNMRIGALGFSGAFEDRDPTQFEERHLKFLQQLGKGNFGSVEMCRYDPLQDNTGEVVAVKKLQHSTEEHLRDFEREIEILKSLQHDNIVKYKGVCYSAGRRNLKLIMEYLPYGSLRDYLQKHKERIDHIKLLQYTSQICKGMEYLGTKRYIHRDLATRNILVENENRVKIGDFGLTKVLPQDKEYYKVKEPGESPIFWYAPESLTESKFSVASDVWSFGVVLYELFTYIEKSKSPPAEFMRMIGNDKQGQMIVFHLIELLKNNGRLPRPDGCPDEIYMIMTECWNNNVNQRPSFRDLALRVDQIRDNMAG
Description: Inhibition of human JAK2 (532-1132) by time resolved fluorescence assay

For `O=c1[nH]c2cnc(-n3cnc4ccccc43)nc2n1C1CCOc2cccc(F)c21` (racemic), the IC50 was 97 nM.

Turning to `O=c1[nH]c2cnc(-n3cnc4ccccc43)nc2n1[C@@H]1CCOc2c(F)cccc21`, it took 333 nM to reach half-maximal inhibition (IC50).

`O=c1[nH]c2cnc(-n3cnc4ccccc43)nc2n1[C@H]1CCOc2c(F)cccc21`: the half-maximal inhibitory concentration (IC50) stood at 7000 nM. Against the preceding molecule, the IC50 is about 21-fold higher.

`N#Cc1ccc2ncn(-c3ncc4[nH]c(=O)n(Cc5cccc(F)c5F)c4n3)c2c1`: the IC50 was 270 nM.

In turn, `N#Cc1ccc2ncn(-c3ncc4[nH]c(=O)n(C5CCOCC5)c4n3)c2c1` came in with a half-maximal inhibitory concentration (IC50) of 470 nM.

Molecule `N#Cc1ccc2ncn(-c3ncc4[nH]c(=O)n([C@@H]5CCOc6c(F)cccc65)c4n3)c2c1` registered a 50% inhibitory concentration (IC50) of 5 nM.

`O=c1[nH]c2cnc(-n3cnc4ccc(F)cc43)nc2n1Cc1c(F)cccc1F` yielded an IC50 of 320 nM.

`N#Cc1ccc2ncn(-c3ncc4[nH]c(=O)n(Cc5c(Cl)cccc5Cl)c4n3)c2c1`: the IC50 turned out to be 1550 nM.

With `O=c1[nH]c2cnc(-n3cnc4ccccc43)nc2n1C1CCOc2ccc(Cl)cc21` (racemic), the IC50 amounted to 500 nM.

For the molecule `N#Cc1ccc2ncn(-c3ncc4[nH]c(=O)n(Cc5c(F)cccc5F)c4n3)c2c1`, inhibition was half-maximal at 28 nM (IC50).

Consider `O=c1[nH]c2cnc(-n3cnc4ccc(C(F)(F)F)cc43)nc2n1C1CCOCC1`, for which the 50% inhibitory concentration (IC50) worked out at 560 nM.

Molecule `O=c1[nH]c2cnc(-n3cnc4ccc(F)cc43)nc2n1C1CCOCC1` showed an IC50 of 3400 nM.

In the case of `O=c1[nH]c2cnc(-n3cnc4ccccc43)nc2n1C1CCOc2c(F)cccc21` (racemic), the IC50 was 285 nM. This IC50 is about 12-fold lower than that of the molecule before.

In turn, `O=c1[nH]c2cnc(-n3cnc4ccccc43)nc2n1C1CCOc2ccccc21` (racemic) came in with an IC50 of 170 nM.

`O=c1[nH]c2cnc(-n3cnc4ccccc43)nc2n1C1CCOc2ccc(F)cc21` (racemic) had an IC50 of 83 nM.

`O=c1[nH]c2cnc(-n3cnc4cc(C(F)(F)F)ccc43)nc2n1C1CCOCC1` displayed an IC50 of 1800 nM. This IC50 is about 22-fold higher than that of the molecule before.

The molecule `O=c1[nH]c2cnc(-n3cnc4ccc(F)cc43)nc2n1Cc1cccc(F)c1F` showed an IC50 of 1000 nM.

For the molecule `O=c1[nH]c2cnc(-n3cnc4ccc(Cl)cc43)nc2n1C1CCOCC1`, the midpoint of inhibition, the IC50, lay at 393 nM. This IC50 lies about 2.5-fold lower than the previous one.

The molecule `O=c1[nH]c2cnc(-n3cnc4ccccc43)nc2n1C1CCOc2cc(F)ccc21` (racemic) had a half-maximal inhibitory concentration (IC50) of 95 nM.

Take `O=c1[nH]c2cnc(-n3cnc4ccc(Cl)cc43)nc2n1[C@@H]1CCOc2c(F)cccc21`: the IC50 came to 56 nM.

As usually defined, the IC50 is the point on the concentration scale where inhibition reaches its midpoint. Low values mean higher potency, high ones lower potency.
